Measurements published in patent US7112418B2, “Ion channel” (priority 1995, dated 2006).
Where two headings read alike, the source gives them in different places.

What was measured:
[1] = tested on: Rat brain iia sodium channel; conditions: read-out: IC50 (TTX Sensitivity); cited from earlier work
[2] = target: mutated SNS sodium channel (SNS mutant) (Rattus norvegicus, UniProt Q62968, S356F); type: cell-based; conditions: read-out: IC50 (TTX sensitivity restored)
[3] = target: muscle type 1 sodium channel (Rattus norvegicus, UniProt P15390); conditions: read-out: IC50 (TTX Sensitivity); cited from earlier work
SNS sodium channel = SNS sodium channel (Rattus norvegicus, UniProt Q62968); type: cell-based
Chain of SNS sodium channel (Q62968 other isoform, or with tags, fused parts or gaps with the stated changes): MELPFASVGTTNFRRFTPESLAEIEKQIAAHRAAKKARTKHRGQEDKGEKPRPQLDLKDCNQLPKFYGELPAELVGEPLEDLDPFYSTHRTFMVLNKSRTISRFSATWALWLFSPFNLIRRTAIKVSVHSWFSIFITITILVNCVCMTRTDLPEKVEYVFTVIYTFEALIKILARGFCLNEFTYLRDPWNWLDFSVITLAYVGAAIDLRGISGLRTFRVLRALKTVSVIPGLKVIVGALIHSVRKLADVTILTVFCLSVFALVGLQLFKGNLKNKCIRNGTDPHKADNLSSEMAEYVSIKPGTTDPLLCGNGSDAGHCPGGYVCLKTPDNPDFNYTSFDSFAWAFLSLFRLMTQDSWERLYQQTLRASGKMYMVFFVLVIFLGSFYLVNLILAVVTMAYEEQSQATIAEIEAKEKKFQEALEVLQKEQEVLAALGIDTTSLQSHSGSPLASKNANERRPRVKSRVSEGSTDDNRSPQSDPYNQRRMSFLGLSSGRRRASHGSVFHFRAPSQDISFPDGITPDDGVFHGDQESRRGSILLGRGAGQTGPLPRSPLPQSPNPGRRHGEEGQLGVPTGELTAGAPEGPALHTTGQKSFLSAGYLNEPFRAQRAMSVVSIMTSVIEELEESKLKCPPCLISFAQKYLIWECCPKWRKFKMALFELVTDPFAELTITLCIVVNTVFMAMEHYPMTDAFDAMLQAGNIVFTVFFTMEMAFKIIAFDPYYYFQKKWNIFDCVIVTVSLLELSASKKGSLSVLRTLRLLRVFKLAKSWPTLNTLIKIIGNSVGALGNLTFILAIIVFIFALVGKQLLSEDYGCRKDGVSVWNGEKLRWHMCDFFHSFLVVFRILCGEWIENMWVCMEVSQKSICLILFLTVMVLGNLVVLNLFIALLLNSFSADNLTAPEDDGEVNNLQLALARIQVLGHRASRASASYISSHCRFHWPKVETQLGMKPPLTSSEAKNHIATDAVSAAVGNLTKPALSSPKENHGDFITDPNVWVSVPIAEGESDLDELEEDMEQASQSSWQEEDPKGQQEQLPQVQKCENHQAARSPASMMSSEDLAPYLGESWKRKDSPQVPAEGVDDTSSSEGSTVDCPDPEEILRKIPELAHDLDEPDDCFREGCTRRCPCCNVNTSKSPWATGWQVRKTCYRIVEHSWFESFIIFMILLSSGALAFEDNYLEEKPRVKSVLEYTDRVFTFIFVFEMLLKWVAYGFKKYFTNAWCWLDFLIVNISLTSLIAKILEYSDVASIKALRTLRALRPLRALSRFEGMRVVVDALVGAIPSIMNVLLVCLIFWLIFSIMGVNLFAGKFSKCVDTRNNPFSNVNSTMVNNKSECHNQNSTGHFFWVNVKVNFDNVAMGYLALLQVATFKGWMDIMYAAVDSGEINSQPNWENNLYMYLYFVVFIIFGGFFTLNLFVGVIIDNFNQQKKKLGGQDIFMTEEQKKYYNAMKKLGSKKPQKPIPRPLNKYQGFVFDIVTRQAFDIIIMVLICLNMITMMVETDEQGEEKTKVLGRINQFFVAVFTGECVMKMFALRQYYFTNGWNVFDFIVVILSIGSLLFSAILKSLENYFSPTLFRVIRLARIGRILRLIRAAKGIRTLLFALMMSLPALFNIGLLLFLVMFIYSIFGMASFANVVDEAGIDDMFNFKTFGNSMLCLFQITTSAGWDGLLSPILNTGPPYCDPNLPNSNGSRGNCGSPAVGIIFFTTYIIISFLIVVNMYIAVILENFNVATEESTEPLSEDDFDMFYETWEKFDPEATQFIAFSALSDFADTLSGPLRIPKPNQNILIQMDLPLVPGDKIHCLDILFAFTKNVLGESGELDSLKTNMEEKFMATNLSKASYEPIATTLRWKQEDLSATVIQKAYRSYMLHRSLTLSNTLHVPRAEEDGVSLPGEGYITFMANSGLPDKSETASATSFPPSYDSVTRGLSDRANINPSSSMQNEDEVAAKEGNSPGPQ

[4] = tested on: DRG sodium channel transcripts; test: RT-PCR of DRG sodium channel transcripts in DRG of neonatal animals treated with capsaicin; type: in vivo, rat; conditions: 50 mg/kg on 2 consecutive days, DRG isolation 5 days later
Method: (§1) cDNA was synthesized with Superscript reverse transcriptase using oligo dT(12-18) primers and purified on Qiagen 5 tips. Polymerase chain reaction (PCR) was used to amplify cDNA (35 cycles, 94° C., 1 min; 55° C., 1 min; and 72° C., 1 min), and products separated on agarose gels before staining with ethidium bromide. L-27 primers (Ninkina et al. (1983) Nucleic Acids Res. 21, 3175-3182) were added to the PCR reaction 5 cycles after the start of the reaction with the DRG sodium channel specific primers which comprised

[5] = tested on: DRG sodium channel transcript; test: Northern blot of adult DRG RNA from rats treated with capsaicin as neonates; type: in vivo, rat; conditions: neonatal rats treated, total adult DRG RNA
Method: Random primed ^32P-labeled DNA Pst-Acc 1 fragment probes (50 ng, specific activity 2×10^9 c.p.m. per μg DNA) from interdomain region 1 (nucleotide position 1,478-1,892) of the SNS sodium channel nucleic acid sequence were used to probe total RNA extracted from tissues.
Total RNA was separated on 1.2% agarose-formaldehyde gels, and capillary blotted onto Hibond-N filters (Amersham). The amounts of RNA on the blot were roughly equivalent, as judged by ethidium bromide staining of ribosomal RNA and by hybridization with the ubiquitously expressed L-27 ribosomal protein transcripts. Filters were prehybridized in 50% formamide, 5×SSC containing 0.5% sodium dodecyl sulfate, 5× Denhardts solution, 100 μg/ml boiled sonicated salmon sperm DNA (average size 300 bp), 10 μg/ml poly-U and 10 μg/ml poly-C at 45° C. for 6 h. After 36 hours hybridization in the same conditions using 10^7 c.p.m. per ml hybridization probe, the filters were briefly washed in 2×SSC at room temperature, then twice with 2×SSC with 0.5% SDS at 68° C. for 15 min, followed by a 20 min wash in 0.5% SDS, 0.2×SSC at 68° C. The filters were autoradiographed overnight or for 4 days on autoradiography film (Kodak X-omat).

[6] = tested on: DRG sodium channel transcripts; test: RT-PCR of DRG sodium channel transcripts in cultured DRG neurons treated with capsaicin; type: cell-based, rat; conditions: overnight 10 μM
Method: as §1

Chain of mutated SNS sodium channel (SNS mutant) (Q62968 whole entry S356F, looked up): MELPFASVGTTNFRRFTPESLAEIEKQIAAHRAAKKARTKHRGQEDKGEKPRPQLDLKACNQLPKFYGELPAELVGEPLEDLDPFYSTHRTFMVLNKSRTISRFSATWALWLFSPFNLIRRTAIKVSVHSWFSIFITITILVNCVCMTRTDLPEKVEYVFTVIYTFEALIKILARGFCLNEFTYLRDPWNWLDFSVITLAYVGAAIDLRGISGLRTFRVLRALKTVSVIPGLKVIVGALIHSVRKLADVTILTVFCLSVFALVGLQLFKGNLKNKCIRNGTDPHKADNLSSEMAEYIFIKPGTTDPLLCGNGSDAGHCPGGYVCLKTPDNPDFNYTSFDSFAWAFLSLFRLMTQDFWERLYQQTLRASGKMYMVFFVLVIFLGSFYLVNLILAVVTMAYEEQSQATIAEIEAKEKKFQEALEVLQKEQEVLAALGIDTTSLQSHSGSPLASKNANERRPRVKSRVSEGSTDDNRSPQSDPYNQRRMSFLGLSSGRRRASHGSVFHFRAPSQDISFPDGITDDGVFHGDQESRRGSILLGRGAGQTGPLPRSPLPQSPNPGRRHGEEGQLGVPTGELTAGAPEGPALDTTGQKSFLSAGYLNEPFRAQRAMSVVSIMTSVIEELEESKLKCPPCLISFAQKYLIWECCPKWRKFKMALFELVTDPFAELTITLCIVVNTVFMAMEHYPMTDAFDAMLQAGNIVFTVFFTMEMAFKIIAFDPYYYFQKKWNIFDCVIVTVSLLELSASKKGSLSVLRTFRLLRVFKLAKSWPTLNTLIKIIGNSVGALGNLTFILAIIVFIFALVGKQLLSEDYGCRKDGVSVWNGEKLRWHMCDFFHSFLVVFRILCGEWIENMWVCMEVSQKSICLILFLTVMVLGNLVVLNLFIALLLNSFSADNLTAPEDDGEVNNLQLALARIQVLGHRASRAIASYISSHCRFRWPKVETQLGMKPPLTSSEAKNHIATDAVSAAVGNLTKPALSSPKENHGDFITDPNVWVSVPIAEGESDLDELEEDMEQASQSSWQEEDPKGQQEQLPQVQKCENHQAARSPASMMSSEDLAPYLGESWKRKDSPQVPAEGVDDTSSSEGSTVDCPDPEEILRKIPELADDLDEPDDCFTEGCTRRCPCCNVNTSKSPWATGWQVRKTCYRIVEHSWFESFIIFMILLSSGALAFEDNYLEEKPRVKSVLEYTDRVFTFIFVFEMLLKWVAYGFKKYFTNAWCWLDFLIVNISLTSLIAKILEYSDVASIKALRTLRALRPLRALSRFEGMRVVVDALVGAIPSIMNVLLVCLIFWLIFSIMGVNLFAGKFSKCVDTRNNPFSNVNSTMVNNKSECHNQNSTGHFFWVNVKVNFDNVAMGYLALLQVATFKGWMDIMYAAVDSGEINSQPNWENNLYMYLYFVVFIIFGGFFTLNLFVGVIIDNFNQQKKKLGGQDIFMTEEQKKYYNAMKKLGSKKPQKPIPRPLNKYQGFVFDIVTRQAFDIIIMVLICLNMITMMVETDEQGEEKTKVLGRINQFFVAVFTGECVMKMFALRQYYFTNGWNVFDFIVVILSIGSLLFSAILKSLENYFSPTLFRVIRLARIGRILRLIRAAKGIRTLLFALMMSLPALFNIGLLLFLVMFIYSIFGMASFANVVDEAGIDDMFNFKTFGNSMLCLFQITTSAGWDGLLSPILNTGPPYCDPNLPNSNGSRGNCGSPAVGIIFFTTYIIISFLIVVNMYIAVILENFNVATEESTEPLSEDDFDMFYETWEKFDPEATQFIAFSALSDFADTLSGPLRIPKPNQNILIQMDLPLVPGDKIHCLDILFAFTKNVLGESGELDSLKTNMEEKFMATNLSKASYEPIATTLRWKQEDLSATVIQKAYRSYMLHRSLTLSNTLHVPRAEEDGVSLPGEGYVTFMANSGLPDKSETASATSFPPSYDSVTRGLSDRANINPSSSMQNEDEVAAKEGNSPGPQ

In the case of NC1=N[C@H](O)[C@H]2[C@H]3O[C@]4(O)O[C@@H]([C@@H](O)[C@@]2(N1)[C@@H]4O)[C@]3(O)CO [TTX, tetrodotoxin], the IC50 [1] is listed as 18 nM, the IC50 [2] is listed as 2.5 nM and the IC50 [3] is listed as 40 nM. The “block of the channel” value (SNS sodium channel) was “only partially blocked”, the “effect on peak Na+ current” value (SNS sodium channel) was “no effect” and the “effect on the channel” value (SNS sodium channel) was “unaffected”. For the same compound, the “reduction of peak Na+ current” value (SNS sodium channel) was 19.1±8.3%, the “reversibility of effect on peak Na+ current” value (SNS sodium channel) was “quickly reversible upon washout” and the IC50 (SNS sodium channel; read-out: IC50 (TTX Sensitivity)) was 60000 nM. It also gave an IC50 (SNS sodium channel; read-out: IC50 (relative insensitivity to TTX)) of over 1000 nM and an IC50 (SNS sodium channel; read-out: estimated half-maximal inhibitory concentration (IC50)) of 59600 ± 10100 nM.
For COc1cc(CNC(=O)CCCC/C=C/C(C)C)ccc1O [capsaicin], the “DRG sodium channel signal (RT-PCR) compared with controls” value [4] was “significant diminution”, the “DRG sodium channel northern blot signal” value [5] was “substantially reduced” and the “DRG sodium channel signal (RT-PCR) compared with controls” value [6] was “significant diminution”.
In the case of CCN(CC)CC(=O)Nc1c(C)cccc1C [lignocaine], the “maximum block of peak current” value (SNS sodium channel) is reported as 41.7±5.4%.
For O=C1NC(=O)C(c2ccccc2)(c2ccccc2)N1 [phenytoin], the “effect on peak current” value (SNS sodium channel; 100 μM, depolarizing pulses from −60 mV to +10 mV, 1 every min) was “no effect”.
